Test results as given in the NIST ThermoML archive (doi:10.1016/j.jct.2004.09.014).
Numbers after ± are expanded uncertainties.

Test: xn = mol fraction of the nth substance listed
Details: 101.3 kPa, Liquid

COCCOCCOCCO [2-[2-(2-methoxyethoxy)ethoxy]ethanol] + CCOC(C)(C)C
mass density (293.15 K, x2 = 0): 1047.29 ± 1.9 kg/m3 | mass density (293.15 K, x2 = 0.0504): 1037.46 ± 1.8 kg/m3 | mass density (293.15 K, x2 = 0.1): 1026.36 ± 1.7 kg/m3 | mass density (293.15 K, x2 = 0.1509): 1014.18 ± 1.6 kg/m3 | mass density (293.15 K, x2 = 0.2025): 1000.97 ± 1.6 kg/m3 | mass density (293.15 K, x2 = 0.2489): 988.73 ± 1.5 kg/m3 | mass density (293.15 K, x2 = 0.3007): 974.54 ± 1.4 kg/m3 | mass density (293.15 K, x2 = 0.3511): 960.3 ± 1.3 kg/m3 | mass density (293.15 K, x2 = 0.3999): 946.13 ± 1.2 kg/m3 | mass density (293.15 K, x2 = 0.4508): 930.95 ± 1.2 kg/m3 | mass density (293.15 K, x2 = 0.5001): 915.87 ± 1.1 kg/m3 | mass density (293.15 K, x2 = 0.5493): 900.4 ± 1 kg/m3 | mass density (293.15 K, x2 = 0.6): 884.14 ± 0.97 kg/m3 | mass density (293.15 K, x2 = 0.6503): 867.65 ± 0.91 kg/m3 | mass density (293.15 K, x2 = 0.6998): 851.17 ± 0.86 kg/m3 | mass density (293.15 K, x2 = 0.7491): 834.48 ± 0.81 kg/m3 | mass density (293.15 K, x2 = 0.7999): 816.94 ± 0.76 kg/m3 | mass density (293.15 K, x2 = 0.8509): 798.94 ± 0.72 kg/m3 | mass density (293.15 K, x2 = 0.9001): 780.97 ± 0.68 kg/m3 | mass density (293.15 K, x2 = 0.9498): 761.89 ± 0.65 kg/m3 | mass density (298.15 K, x2 = 0): 1042.97 ± 1.9 kg/m3 | mass density (298.15 K, x2 = 0.0504): 1032.75 ± 1.8 kg/m3 | mass density (298.15 K, x2 = 0.1): 1021.48 ± 1.7 kg/m3 | mass density (298.15 K, x2 = 0.1509): 1009.14 ± 1.7 kg/m3 | mass density (298.15 K, x2 = 0.2025): 995.85 ± 1.6 kg/m3 | mass density (298.15 K, x2 = 0.2489): 983.55 ± 1.5 kg/m3 | mass density (298.15 K, x2 = 0.3007): 969.31 ± 1.4 kg/m3 | mass density (298.15 K, x2 = 0.3511): 954.96 ± 1.3 kg/m3 | mass density (298.15 K, x2 = 0.3999): 940.72 ± 1.3 kg/m3 | mass density (298.15 K, x2 = 0.4508): 925.44 ± 1.2 kg/m3 | mass density (298.15 K, x2 = 0.5001): 910.23 ± 1.1 kg/m3 | mass density (298.15 K, x2 = 0.5493): 894.71 ± 1.1 kg/m3 | mass density (298.15 K, x2 = 0.6): 878.36 ± 1 kg/m3 | mass density (298.15 K, x2 = 0.6503): 861.88 ± 0.94 kg/m3 | mass density (298.15 K, x2 = 0.6998): 845.39 ± 0.89 kg/m3 | mass density (298.15 K, x2 = 0.7491): 828.67 ± 0.84 kg/m3 | mass density (298.15 K, x2 = 0.7999): 811.16 ± 0.8 kg/m3 | mass density (298.15 K, x2 = 0.8509): 793.17 ± 0.76 kg/m3 | mass density (298.15 K, x2 = 0.9001): 775.22 ± 0.72 kg/m3 | mass density (298.15 K, x2 = 0.9498): 756.2 ± 0.69 kg/m3 | mass density (303.15 K, x2 = 0): 1038.65 ± 1.9 kg/m3 | mass density (303.15 K, x2 = 0.0504): 1028.05 ± 1.8 kg/m3 | mass density (303.15 K, x2 = 0.1): 1016.59 ± 1.8 kg/m3 | mass density (303.15 K, x2 = 0.1509): 1004.22 ± 1.7 kg/m3 | mass density (303.15 K, x2 = 0.2025): 990.92 ± 1.6 kg/m3 | mass density (303.15 K, x2 = 0.2489): 978.6 ± 1.5 kg/m3 | mass density (303.15 K, x2 = 0.3007): 964.34 ± 1.4 kg/m3 | mass density (303.15 K, x2 = 0.3511): 949.94 ± 1.4 kg/m3 | mass density (303.15 K, x2 = 0.3999): 935.65 ± 1.3 kg/m3 | mass density (303.15 K, x2 = 0.4508): 920.33 ± 1.2 kg/m3 | mass density (303.15 K, x2 = 0.5001): 905.09 ± 1.1 kg/m3 | mass density (303.15 K, x2 = 0.5493): 889.55 ± 1.1 kg/m3 | mass density (303.15 K, x2 = 0.6): 873.18 ± 1 kg/m3 | mass density (303.15 K, x2 = 0.6503): 856.69 ± 0.98 kg/m3 | mass density (303.15 K, x2 = 0.6998): 840.21 ± 0.93 kg/m3 | mass density (303.15 K, x2 = 0.7491): 823.52 ± 0.88 kg/m3 | mass density (303.15 K, x2 = 0.7999): 806.01 ± 0.83 kg/m3 | mass density (303.15 K, x2 = 0.8509): 788.08 ± 0.79 kg/m3 | mass density (303.15 K, x2 = 0.9001): 770.16 ± 0.76 kg/m3 | mass density (303.15 K, x2 = 0.9498): 751.24 ± 0.73 kg/m3 | mass density (308.15 K, x2 = 0): 1034.33 ± 1.9 kg/m3 | mass density (308.15 K, x2 = 0.0504): 1023.44 ± 1.9 kg/m3 | mass density (308.15 K, x2 = 0.1): 1011.83 ± 1.8 kg/m3 | mass density (308.15 K, x2 = 0.1509): 999.35 ± 1.7 kg/m3 | mass density (308.15 K, x2 = 0.2025): 985.93 ± 1.6 kg/m3 | mass density (308.15 K, x2 = 0.2489): 973.56 ± 1.5 kg/m3 | mass density (308.15 K, x2 = 0.3007): 959.27 ± 1.5 kg/m3 | mass density (308.15 K, x2 = 0.3511): 944.86 ± 1.4 kg/m3 | mass density (308.15 K, x2 = 0.3999): 930.52 ± 1.3 kg/m3 | mass density (308.15 K, x2 = 0.4508): 915.15 ± 1.2 kg/m3 | mass density (308.15 K, x2 = 0.5001): 899.84 ± 1.2 kg/m3 | mass density (308.15 K, x2 = 0.5493): 884.29 ± 1.1 kg/m3 | mass density (308.15 K, x2 = 0.6): 867.9 ± 1.1 kg/m3 | mass density (308.15 K, x2 = 0.6503): 851.4 ± 1 kg/m3 | mass density (308.15 K, x2 = 0.6998): 834.91 ± 0.96 kg/m3 | mass density (308.15 K, x2 = 0.7491): 818.24 ± 0.91 kg/m3 | mass density (308.15 K, x2 = 0.7999): 800.74 ± 0.87 kg/m3 | mass density (308.15 K, x2 = 0.8509): 782.84 ± 0.83 kg/m3 | mass density (308.15 K, x2 = 0.9001): 764.98 ± 0.8 kg/m3 | mass density (308.15 K, x2 = 0.9498): 746.17 ± 0.77 kg/m3 | mass density (313.15 K, x2 = 0): 1030.01 ± 2 kg/m3 | mass density (313.15 K, x2 = 0.0504): 1018.75 ± 1.9 kg/m3 | mass density (313.15 K, x2 = 0.1): 1006.97 ± 1.8 kg/m3 | mass density (313.15 K, x2 = 0.1509): 994.34 ± 1.7 kg/m3 | mass density (313.15 K, x2 = 0.2025): 980.82 ± 1.6 kg/m3 | mass density (313.15 K, x2 = 0.2489): 968.35 ± 1.6 kg/m3 | mass density (313.15 K, x2 = 0.3007): 953.99 ± 1.5 kg/m3 | mass density (313.15 K, x2 = 0.3511): 939.57 ± 1.4 kg/m3 | mass density (313.15 K, x2 = 0.3999): 925.15 ± 1.3 kg/m3 | mass density (313.15 K, x2 = 0.4508): 909.71 ± 1.3 kg/m3 | mass density (313.15 K, x2 = 0.5001): 894.39 ± 1.2 kg/m3 | mass density (313.15 K, x2 = 0.5493): 878.77 ± 1.1 kg/m3 | mass density (313.15 K, x2 = 0.6): 862.36 ± 1.1 kg/m3 | mass density (313.15 K, x2 = 0.6503): 845.82 ± 1 kg/m3 | mass density (313.15 K, x2 = 0.6998): 829.29 ± 1 kg/m3 | mass density (313.15 K, x2 = 0.7491): 812.58 ± 0.95 kg/m3 | mass density (313.15 K, x2 = 0.7999): 795.06 ± 0.91 kg/m3 | mass density (313.15 K, x2 = 0.8509): 777.19 ± 0.87 kg/m3 | mass density (313.15 K, x2 = 0.9001): 759.37 ± 0.84 kg/m3 | mass density (313.15 K, x2 = 0.9498): 740.68 ± 0.81 kg/m3
